According to patent US8697629B2, “Modulation of intracellular signaling” (Angstrom Pharmaceuticals, Inc., priority 2010, dated 2014):
“Also recorded” adds a separate entry of the source.

Assays:
FAK = FAK phosphorylation in SKOV3 cells, immunoblot and densitometry; assay type: cell-based
Procedure: Cells were detached from their culture vessels by brief trypsinization, suspended in complete media and centrifuged at 250×g for 10 min at room temperature. The cell pellets were suspended in Dulbeco's phosphate buffered saline (DPBS) and re-centrifuged for a total of three washes. The cells were then re-suspended at 3.33E5/ml in 24 ml of either RPMI containing 0.5% BSA (Sigma Chem. Co. #A0336) (RPMI/BSA) or the conditioned media of growing NIH3T3 fibroblasts (10% FBS in DMEM) supplemented with 10 ng/ml vascular endothelial growth factor (VEGF) (CMN). The cells were then treated with or without 100 ug/ml soluble hyaluronic acid (HA; human umbilical, Calbiochem #385902) for 30 min at 37° C. under 5% CO2. Aliquots representing 2E6 cells were then plated into 10 cm culture dishes and A6 added to yield final concentrations of 0, 10, 100 and 1000 nM. The cells were cultured overnight (18 hr) at 37° C. under 5% CO2.
After 18 hr of treatment, the media were aspirated from the 10 cm dishes and saved. The plates were washed 3 times with 4 ml of ice-cold DPBS which were pooled with the reserved non-adherent cells. The non-adherent cells were centrifuged at 250×g for 10 min at 4° C., washed twice with cold DPBS, drained and lysed in 50 ul of cold RIPA buffer (ThermoScientific #89901) containing cocktails of broad spectrum phosphatase inhibitors (Calbiochem #524625; used at 2× final concentration) and protease inhibitors (Sigma #P8340) (RIPA/inh.). The 10 cm dishes were drained of remaining wash and the adherent cells lysed by scraping in 200 μL of cold RIPA/inh. For each test condition, the lysates of the non-adherent and adherent populations were combined, vortexed and then centrifuged at 14,000 rpm at 4° C. for 20 min. Aliquots of the cleared lysates were frozen at −80° C. immediately. A small aliquot was reserved for total protein analysis using a BCA Protein Assay Kit (Calbiochem #71285-3).
Samples representing 20 μg of total protein of each lysate were solubilized in the presence of 50 mM Tris pH 6.8, 10% glycerol, 2% SDS and 100 mM DTT for 5 min at 95° C. and then loaded onto 10-20% acrylamide gels (BioRad #345-0044, Tris-HCl, 1 mm, 26 well, 15 μL/well). Electrophoresis was performed using Laemli electrophoresis buffer (0.1% SDS, 25 mM Tris, 192 mM glycine) at 200 V, constant voltage, for one hour. Upon completion of electrophoresis, the proteins were transferred to Immun-Blot PVDF membranes (BioRad #162-0238) in ice-cold 20% methanol in 25 mM Tris, 192 mM glycine for 2 hr at 0.5 Amps, constant current/blotting apparatus. […]
The integrated densities (id) of the bands of interest were measured using Image J software (NIH). […]

B16 melanoma cells = assay: B16 melanoma lung metastasis model; assay type: in vivo, C57BL/6J mice; conditions: melanoma cells injected in the tail vein
Procedure: The B16 melanoma metastasis is well known in the art. A typical protocol for assessing the inhibitory effect of a compound on metastasis is described below. Such a protocol was followed to assess the effect of Å6 on metastasis.
Briefly, B16 melanoma cells can be cultured in RPMI-1640 with 10% fetal bovine serum at 37° C. in an atmosphere of 95% air and 5% CO2. C57BL/6J mice of six to eight weeks can be purchased from commercial suppliers. For the lung metastasis model, about 1×10^5 melanoma cells suspended in 100 μl saline were injected in the tail vein in the presence or absence of Å6. Administration of the Å6 peptide inhibited the lung metastasis by 50% or more.

CD44 = target: T1, CD44 (Homo sapiens, UniProt P16070); assay: Immunoprecipitation of Å6Cbiotin-crosslinked SKOV3 polypeptides, HRP-SA blotting; assay type: binding; conditions: SKOV3 cells, 100 μM Å6Cbiotin, BS3 crosslinking, DF1485 anti-CD44
T1 construct: endogenous in cells; host or cells: SKOV3 cells
Procedure: In FIGS. 1 and 2 SKOV3 cells were incubated with or without 100 μM Å6Cbiotin (Å6CbioXL and ConXL, respectively) for 30 min at 4° C. The cells were then crosslinked with 5 mM bis(sulfosuccinimidyl) suberate (Sulfo-DSS or BS^3) for 30 min at 4° C. and Triton X-100 lysates generated. The lysates were pre-cleared by incubating with Protein A-agarose for 2 hr at room temperature. Aliquots representing 100 μg of the cleared lysates were then incubated overnight at room temperature with 20 μL of Protein A-agarose plus 2 μg of anti-Tenascin R (TnR; E-18, Santa Cruz Biotech.), anti-Tenascin C (TnC; 300-3, Santa Cruz Biotech.), anti-CD44 (DF1485, Santa Cruz Biotech.), anti-Plexin-A1 (Pl A1; H-60, Santa Cruz Biotech.) or murine IgG1 (Sigma Chem. Co.). After washing 5 times with lysis buffer, the immunoprecipitated polypeptides were eluted from the Protein A-agarose by boiling in SDS-PAGE sample buffer. The eluted material and 2 μg aliquots of the starting material were then subjected to SDS-PAGE, transfer to PVDF membranes and blotting with chemiluminescent horseradish peroxidase (HRP)-conjugated streptavidin (HRP-SA).
In FIG. 3 SKOV3 cells were incubated with or without 100 μM Å6Cbiotin (Å6CbioXL and control, respectively) for 30 minutes at 4° C. The cells were then crosslinked with 5 mM BS3 for 30 min at 4° C. […]

T1 sequence (P16070 21-742): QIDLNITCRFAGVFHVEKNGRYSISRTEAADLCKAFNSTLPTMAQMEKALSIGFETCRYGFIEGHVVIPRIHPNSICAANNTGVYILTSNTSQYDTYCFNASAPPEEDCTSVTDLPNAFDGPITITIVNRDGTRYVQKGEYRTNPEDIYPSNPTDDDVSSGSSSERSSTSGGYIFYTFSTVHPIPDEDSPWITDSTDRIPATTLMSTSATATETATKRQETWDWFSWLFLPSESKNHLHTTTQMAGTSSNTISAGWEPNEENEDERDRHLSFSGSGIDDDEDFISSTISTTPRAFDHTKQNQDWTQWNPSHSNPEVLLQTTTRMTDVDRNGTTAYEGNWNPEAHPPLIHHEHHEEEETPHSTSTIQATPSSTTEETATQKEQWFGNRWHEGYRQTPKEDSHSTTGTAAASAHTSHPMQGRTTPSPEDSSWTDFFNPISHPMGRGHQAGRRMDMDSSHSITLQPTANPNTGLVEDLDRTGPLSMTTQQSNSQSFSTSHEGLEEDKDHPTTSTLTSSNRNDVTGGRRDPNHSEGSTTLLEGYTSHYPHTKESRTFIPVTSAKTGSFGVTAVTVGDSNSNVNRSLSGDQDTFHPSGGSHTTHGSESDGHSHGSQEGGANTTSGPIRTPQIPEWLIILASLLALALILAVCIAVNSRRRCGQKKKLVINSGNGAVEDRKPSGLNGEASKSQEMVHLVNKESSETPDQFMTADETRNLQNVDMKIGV

acetyl-Lys-Pro-Ser-Ser-Pro-Pro-Glu-Glu-NH2 (Ac-KPSSPPEE-NH2) [Å6]
FAK phosphorylation (FAK; CM/V media): enhanced | FAK phosphorylation in the presence of HA (FAK; RPMI/BSA): restored | pFAK/FAK ratios (FAK; SKOV3, all conditions, Y397, Y576/577, Y925): enhanced pFAK/FAK ratios in a dose-dependent manner | inhibition of lung metastasis (B16 melanoma cells): ≥ 50% | target of the peptide identified by anti-CD44 immunoprecipitation (CD44): targets CD44; also recorded: confirm CD44 as the target
